Drawing on patent US10947252B2, “Inhibitors of KEAP1-Nrf2 protein-protein interaction” (Janssen Pharmaceutica NV, priority 2018, dated 2021), this text covers Kd and EC50 for 17 compounds.

Usually Kd stands for a measure of binding affinity in units of concentration. A word on the EC50: it is the concentration that produces a half-maximal response. Lower therefore signals greater potency.

Experiment [1] addresses Kelch domain of human KEAP1 (321-624 aa) (Homo sapiens (Human), UniProt Q14145). In words: KEAP1 KELCH ThermoFluor binding assay.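 Further: Ligand-induced melting temperature shift of E. coli-expressed KEAP1 Kelch protein, Kd estimated from concentration-response curves of ΔTm.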 The conditions noted are these: KEAP Kelch […], 1,8-ANS, pH 7.0, average of results obtained, read-out: Tf Kd.
Experiment [2] has as its system Glo-Response ARE-luc2P HEK293 cell line. The experiment in a line: ARE luciferase reporter cell-based assay.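 Further: luciferase signal tracks Nrf2 activation of the ARE once compounds disrupt KEAP1-Nrf2 binding, read with One-Glo reagent, DMSO serving as low control.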 The conditions noted are these: Homo sapiens, HEK293, 24 h, average of results obtained.

Chain of Kelch domain of human KEAP1 (321-624 aa) (Q14145 321-624): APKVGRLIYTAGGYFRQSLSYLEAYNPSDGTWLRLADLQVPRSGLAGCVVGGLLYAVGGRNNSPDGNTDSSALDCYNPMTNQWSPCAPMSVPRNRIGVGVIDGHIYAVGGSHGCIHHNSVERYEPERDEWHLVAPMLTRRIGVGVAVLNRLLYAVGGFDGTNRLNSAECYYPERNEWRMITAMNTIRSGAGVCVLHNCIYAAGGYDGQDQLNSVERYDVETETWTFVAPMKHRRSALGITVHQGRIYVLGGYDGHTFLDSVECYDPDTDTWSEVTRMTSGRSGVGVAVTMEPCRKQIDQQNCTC

For `Cc1cnc2c(c1)S(=O)(=O)N(Cc1nc([C@@H](CC(=O)O)c3ccn4c(C(F)(F)F)nnc4c3C)ccc1C)C[C@H]1CCCCN21` (single isomer, unassigned) [Example 491, (*S)-3-(8-Methyl-3-(trifluoromethyl)-[1,2,4]triazolo[4,3-a]pyridin-7-yl)-3-(5-methyl-6-(((*R)-3-methyl-5,5-dioxido-7,7a,8,9,10,11-hexahydro-6H-dipyrido[2,1-d:2′,3′-f][1,2,5]thiadiazepin-6-yl)methyl)pyridin-2-yl)propanoic Acid], in experiment [1], the Kd is < 1 nM. In addition, the EC50 in experiment [2] is 5.53 nM.

For `Cc1ccc([C@@H](CC(=O)O)c2ccc3c(nnn3CC3CC3)c2C)cc1CN1C[C@H]2CCCCN2c2ncccc2S1(=O)=O` (single isomer, unassigned) [Example 235, (*R)-3-(1-(Cyclopropylmethyl)-4-methyl-1H-benzo[d][1,2,3]triazol-5-yl)-3-(3-(((*R)-5,5-dioxido-7,7a,8,9,10,11-hexahydro-6H-dipyrido[2,1-d:2′,3′-f][1,2,5]thiadiazepin-6-yl)methyl)-4-methylphenyl)propanoic Acid], the Kd in experiment [1] was < 1 nM. The compound also gave an EC50 in experiment [2] of 1.9 nM.

With `Cc1ccc([C@@H](CC(=O)O)c2ccn3c(C(F)F)nnc3c2C)cc1CN1C[C@]2(C)CCCN2c2ncccc2S1(=O)=O` (single isomer, unassigned) [Example 477, (*R)-3-(3-(Difluoromethyl)-8-methyl-[1,2,4]triazolo[4,3-a]pyridin-7-yl)-3-(4-methyl-3-(((*S)-7a-methyl-5,5-dioxido-7a,8,9,10-tetrahydropyrido[2,3-f]pyrrolo[2,1-d][1,2,5]thiadiazepin-6(7H)-yl)methyl)phenyl)propanoic Acid], in experiment [1], the Kd is 2.61 nM. Moreover, in experiment [2], the EC50 was found to be 1680 nM.

With `Cc1ccc([C@H](CC(=O)O)c2ccn3c(C(F)(F)F)nnc3c2C)cc1CN1CC2(CCOCC2)Oc2ncccc2S1(=O)=O` (single isomer, unassigned) [Example 432, (*S)-3-(3-((1′,1′-dioxido-2,3,5,6-tetrahydrospiro[pyran-4,4′-pyrido[2,3-b][1,4,5]oxathiazepin]-2′(3′H)-yl)methyl)-4-methylphenyl)-3-(8-methyl-3-(trifluoromethyl)-[1,2,4]triazolo[4,3-a]pyridin-7-yl)propanoic Acid], the Kd in experiment [1] is < 1 nM. Besides, it took 103 nM to reach a half-maximal effect in experiment [2] (EC50).

For the compound `Cc1ccc([C@H](CC(=O)O)c2ccn3c(C(F)(F)F)nnc3c2C)cc1CN1CC2(CC2)Oc2ncc(F)cc2S1(=O)=O` (single isomer, unassigned) [Example 311, (*S)-3-(3-((8′-Fluoro-1′,1′-dioxidospiro[cyclopropane-1,4′-pyrido[2,3-b][1,4,5]oxathiazepin]-2′(3′H)-yl)methyl)-4-methylphenyl)-3-(8-methyl-3-(trifluoromethyl)-[1,2,4]triazolo[4,3-a]pyridin-7-yl)propanoic Acid], the Kd in experiment [1] is < 1 nM. For the same compound, a half-maximal effect in experiment [2] (EC50) was put at 9.3 nM.

In the case of `Cc1ccc(C(CC(=O)O)c2ccc3c(nnn3C)c2C(F)F)cc1CN1CC2CCCN2c2ncccc2S1(=O)=O` (stereo not shown) [Example 71], in experiment [1], the dissociation constant Kd worked out at 2.6 nM. Further, the response in experiment [2] was half-maximal at 1160 nM (EC50).

As for `Cc1ccc([C@@H](c2ccc3c(nnn3CC3CC3)c2C)C(C)(C)C(=O)O)nc1CN1CC2(CCOCC2)Oc2nc(OCCN3CCOCC3)ccc2S1(=O)=O` (single isomer, unassigned) [Example 328, (*S)-3-(1-(Cyclopropylmethyl)-4-methyl-1H-benzo[d][1,2,3]triazol-5-yl)-2,2-dimethyl-3-(5-methyl-6-((7′-(2-morpholinoethoxy)-1′,1′-dioxido-2,3,5,6-tetrahydrospiro[pyran-4,4′-pyrido[2,3-b][1,4,5]oxathiazepin]-2′(3′H)-yl)methyl)pyridin-2-yl)propanoic Acid], the dissociation constant (Kd) in experiment [1] was < 1 nM. In experiment [2], this compound returned a concentration giving a half-maximal response (EC50) of 3.3 nM.

Consider `Cc1cc2c(nc1OCCN1CCCC1)OC1(CC1)CN(Cc1cc([C@H](c3ccc4c(nnn4C4CC4)c3C)C(C)(C)C(=O)O)cnc1C)S2(=O)=O` (single isomer, unassigned) [Example 628, (*S)-3-(1-Cyclopropyl-4-methyl-1H-benzo[d][1,2,3]triazol-5-yl)-2,2-dimethyl-3-(6-methyl-5-((8′-methyl-1′,1′-dioxido-7′-(2-(pyrrolidine-1-yl)ethoxy)spiro[cyclopropane-1,4′-pyrido[2,3-b][1,4,5]]oxathiazepin]-2′(3′H)-yl)methyl)pyridine-3-yl)propanoic Acid], for which the Kd in experiment [1] was determined as 15400 nM. In addition, in experiment [2], the EC50 is > 20000 nM.

In the case of `Cc1ccc([C@H](c2ccn3c(C(F)(F)F)nnc3c2C)C(C)(C)C(=O)O)cc1CN1CC2(CNC2)Oc2ncccc2S1(=O)=O` (single isomer, unassigned) [Example 339, (*R)-3-(3-((1′,1′-Dioxidospiro[azetidine-3,4′-pyrido[2,3-b][1,4,5]oxathiazepin]-2′(3′H)-yl)methyl)-4-methylphenyl)-2,2-dimethyl-3-(8-methyl-3-(trifluoromethyl)-[1,2,4]triazolo[4,3-a]pyridin-7-yl)propanoic Acid], the Kd in experiment [1] was 80200 nM. Also, in experiment [2], the EC50 turned out to be 6320 nM.

Consider `Cc1ccc([C@H](c2ccn3c(C(F)(F)F)nnc3c2C)C(C)(C)C(=O)O)cc1CN1CC2(CCOCC2)Oc2nc(NCCN3CCOCC3)c(C)cc2S1(=O)=O` (single isomer, unassigned) [Example 365, (*R)-2,2-Dimethyl-3-(4-methyl-3-((8′-methyl-7′-((2-morpholinoethyl)amino)-1′,1′-dioxido-2,3,5,6-tetrahydrospiro[pyran-4,4′-pyrido[2,3-b][1,4,5]oxathiazepin]-2′(3′H)-yl)methyl)phenyl)-3-(8-methyl-3-(trifluoromethyl)-[1,2,4]triazolo[4,3-a]pyridine-7-yl)propanoic Acid], for which, in experiment [1], the dissociation constant (Kd) is < 1 nM. The same compound yielded an EC50 in experiment [2] of 23.9 nM.

For the compound `Cc1ccc(C(CC(=O)O)c2ccn3c(C(F)(F)F)nnc3c2C)cc1CN1CC(C)(C)Oc2ncccc2S1(=O)=O` (stereo not shown) [Example 268, 3-(3-((4,4-Dimethyl-1,1-dioxido-3,4-dihydro-2H-pyrido[2,3-b][1,4,5]oxathiazepin-2-yl)methyl)-4-methylphenyl)-3-(8-methyl-3-(trifluoromethyl)-[1,2,4]triazolo[4,3-a]pyridin-7-yl)propanoic Acid], the dissociation constant Kd in experiment [1] was < 1 nM. In experiment [2], this compound returned an EC50 of 516 nM.

`CC[C@@H]1CN(Cc2cc([C@@H](CC(=O)O)c3cc(OC(F)F)c4c(c3)nnn4C)ccc2C)S(=O)(=O)c2cccnc2O1` (single isomer, unassigned) [Example 251, (*R)-3-(7-(Difluoromethoxy)-1-methyl-1H-benzo[d][1,2,3]triazol-5-yl)-3-(3-(((R)-4-ethyl-1,1-dioxido-3,4-dihydro-2H-pyrido[2,3-b][1,4,5]oxathiazepin-2-yl)methyl)-4-methylphenyl)propanoic Acid]: the Kd in experiment [1] is < 1 nM. The EC50 in experiment [2] worked out at 24.1 nM.

As for `CCn1nnc2c(C)c([C@H](c3cc(CN4CC5(CNC5)Oc5ncc(C)cc5S4(=O)=O)c(C)cn3)C(C)(C)C(=O)O)ccc21` (single isomer, unassigned) [Example 595, (*S)-3-(1-Ethyl-4-methyl-1H-benzo[d][1,2,3]triazol-5-yl)-2,2-dimethyl-3-(5-methyl-4-((8′-methyl-1′,1′-dioxidospiro[azetidine-3,4′-pyrido[2,3-b][1,4,5]oxathiazepin]-2′(3′H)-yl)methyl)pyridin-2-yl)propanoic Acid], the Kd in experiment [1] was found to be 4.28 nM. Further, the concentration for a half-maximal effect (EC50) in experiment [2] was 139 nM.

As to `Cc1cnc2c(c1)S(=O)(=O)N(Cc1cc([C@@H](c3cc4cc(C)nnc4n3C)C(C)(C)C(=O)O)ccc1C)CC1(CC1)O2` (single isomer, unassigned) [Example 330, (*S)-3-(3,7-Dimethyl-7H-pyrrolo[2,3-c]pyridazin-6-yl)-2,2-dimethyl-3-(4-methyl-3-((8′-methyl-1′,1′-dioxidospiro[cyclopropane-1,4′-pyrido[2,3-b][1,4,5]oxathiazepin]-2′(3′H)-yl)methyl)phenyl)propanoic Acid], the Kd in experiment [1] amounted to 1590 nM. This compound also returned an EC50 in experiment [2] of 7520 nM.

For the compound `CCn1nnc2c(C)c([C@H](c3ccc(C)c(CN4CC5(CCOCC5)Oc5ncccc5S4(=O)=O)n3)C(C)(C)C(=O)O)ccc21` (single isomer, unassigned) [Example 555, (*S)-3-(6-((1′,1′-Dioxido-2,3,5,6-tetrahydrospiro[pyran-4,4′-pyrido[2,3-b][1,4,5]oxathiazepin]-2′(3′H)-yl)methyl)-5-methylpyridin-2-yl)-3-(1-ethyl-4-methyl-1H-benzo[d][1,2,3]triazol-5-yl)-2,2-dimethylpropanoic Acid], the Kd in experiment [1] was < 1 nM. Moreover, the EC50 in experiment [2] turned out to be 1.42 nM.

Consider `CC[C@@H]1CN(Cc2nc(C(CC(=O)O)c3ccc4c(nnn4C4CC4)c3C)ccc2C)S(=O)(=O)c2cccnc2O1` (mixture of isomers) [Example 174, (R/S)-3-(1-Cyclopropyl-4-methyl-1H-benzo[d][1,2,3]triazol-5-yl)-3-(6-(((R)-4-ethyl-1,1-dioxido-3,4-dihydro-2H-pyrido[2,3-b][1,4,5]oxathiazepin-2-yl)methyl)-5-methylpyridin-2-yl)propanoic Acid], for which the Kd in experiment [1] was < 1 nM. A half-maximal effect in experiment [2] (EC50) was put at 15 nM.

With `Cc1cnc([C@H](c2ccn3c(C(F)F)nnc3c2C)C(C)(C)C(=O)O)cc1CN1CC2(CCOCC2)Oc2nc(OCCN3CCCC3)c(C)cc2S1(=O)=O` (single isomer, unassigned) [Example 639, (*R)-3-(3-(Difluoromethyl)-8-methyl-[1,2,4]triazolo[4,3-a]pyridin-7-yl)-2,2-dimethyl-3-(5-methyl-4-((8′-methyl-1′,1′-dioxido-7′-(2-(pyrrolidin-1-yl)ethoxy)-2,3,5,6-tetrahydrospiro[pyran-4,4′-pyrido[2,3-b][1,4,5]oxathiazepin]-2′(3′H)-yl)methyl)pyridin-2-yl)propanoic Acid], in experiment [1], the Kd came to 1820 nM. This compound returned an EC50 in experiment [2] of 5170 nM.
